24 molecules from US20190374563A1, “TREATMENT OF KLEBSIELLA PNEUMONIAE INFECTIONS WITH ANTIBACTERIAL AMINOGLYCOSIDE COMPOUNDS” (Achaogen, Inc., priority 2009, published 2019) can be followed below.

In brackets after ≈: the same amount, converted by molar mass. Read-outs that look alike come from different tables or passages of the source.

In assay [1] the test system is E. coli ATCC 25922 (AECO001). The assay is described as follows: MIC assay, CLSI broth microdilution. The assay is classed as cell-based. Set-up: MIC AECO001: unit not given here. Conditions: for MIC: Escherichia coli; for MIC AECO001: Table 3, E. coli ATCC25922. The procedure:
(§1) Minimum inhibitory concentrations (MIC) were determined by reference Clinical and Laboratory Standards Institute (CLSI) broth microdilution methods per M7-A7 [2006]. Quality control ranges utilizing E. coli ATCC 25922, P. aeruginosa ATCC 27853 and S. aureus ATCC 29213, and interpretive criteria for comparator agents were as published in CLSI M100-S17 [2007]. Briefly, serial two-fold dilutions of the test compounds were prepared at 2× concentration in Mueller Hinton Broth. The compound dilutions were mixed in 96-well assay plates in a 1:1 ratio with bacterial inoculum. The inoculum was prepared by suspension of a colony from an agar plate that was prepared the previous day. Bacteria were suspended in sterile saline and added to each assay plate to obtain a final concentration of 5×10^5 CFU/mL. The plates were incubated at 35° C. for 20 hours in ambient air.
A general note: In broth dilution the organism is exposed to a series of concentrations in liquid medium.

Assay [2] has as its system P. aeruginosa ATCC 27853 (APAE001). Put plainly: MIC assay, CLSI broth microdilution. In kind it is cell-based. Conditions: Pseudomonas aeruginosa. The procedure:
as §1

The mark [3] stands for this setting: ATCC25922, read-out: MIC AECO001.
The mark [4] stands for this setting: ATCC27853, read-out: MIC APAE001.
The mark [5] stands for this setting: Table 1, AECO001 is ATCC25922, read-out: MIC AECO001.
The mark [6] stands for this setting: Table 1, APAE001 is ATCC27853, read-out: MIC APAE001.

On to `CN[C@@H]1[C@@H](O)[C@@H](O[C@@H]2[C@@H](O)[C@H](O[C@H]3OC(CNCCO)=CC[C@H]3N)[C@@H](N)C[C@H]2NC(=O)[C@H](O)CCN)OC[C@]1(C)O` [Example 2, 6′-(2-Hydroxy-ethyl)-1-(4-amino-2(R)-hydroxy-butyryl)-sisomicin], for which the minimum inhibitory concentration (MIC) in assay [1] (setting [3]) and in assay [2] (setting [4]) was 1 to 16 µg/mL (≈ 1.69 to 27 µM) in each case.
Regarding `CN[C@@H]1[C@@H](O)[C@@H](O[C@@H]2[C@@H](O)[C@H](O[C@H]3OC(CNCC(O)CO)=CC[C@H]3N)[C@@H](N)C[C@H]2NC(=O)[C@H](O)CCN)OC[C@]1(C)O` (stereo partly drawn) [Example 3, 6′-(2-Hydroxy-propanol)-1-(4-amino-2(R)-hydroxy-butyryl)-sisomicin], the MIC in assay [1] (setting [3]) was 1 to 16 µg/mL (≈ 1.61 to 25.7 µM); in assay [2] (setting [4]), more than 16 µg/mL.
For `CN[C@@H]1[C@@H](O)[C@@H](O[C@@H]2[C@@H](O)[C@H](O[C@H]3OC(CNCC4CCNCC4)=CC[C@H]3N)[C@@H](N)C[C@H]2NC(=O)[C@H](O)CCN)OC[C@]1(C)O` [Example 4, 6′-(Methyl-piperidin-4-yl)-1-(4-amino-2(R)-hydroxy-butyryl)-sisomicin], the MIC in assay [1] (setting [3]) and in assay [2] (setting [4]) was 1 to 16 µg/mL (≈ 1.55 to 24.8 µM) in each case.
Take `CN[C@@H]1[C@@H](O)[C@@H](O[C@@H]2[C@@H](O)[C@H](O[C@H]3OC(CNCC4CC4)=CC[C@H]3N)[C@@H](N)C[C@H]2NC(=O)[C@H](O)CCN)OC[C@]1(C)O` [Example 5, 6′-(Methyl-cyclopropyl)-1-(4-amino-2(R)-hydroxy-butyryl)-sisomicin]: the minimal inhibitory concentration (MIC) in assay [1] (setting [3]) was less than 1 µg/mL; in assay [2] (setting [4]), 1 to 16 µg/mL (≈ 1.66 to 26.5 µM).
Taken in the same sequence, the figures for `CN[C@@H]1[C@@H](O)[C@@H](O[C@@H]2[C@@H](O)[C@H](O[C@H]3OC(CNCCCN)=CC[C@H]3N)[C@@H](N)C[C@H]2NC(=O)[C@H](O)CCN)OC[C@]1(C)O` [Example 6, 6′-(3-Amino-propyl)-1-(4-amino-2(R)-hydroxy-butyryl)-sisomicin] were 1 to 16 µg/mL (≈ 1.65 to 26.4 µM) and 1 to 16 µg/mL (≈ 1.65 to 26.4 µM).
For `CN[C@@H]1[C@@H](O)[C@@H](O[C@@H]2[C@@H](O)[C@H](O[C@H]3OC(CNCC4CC4)=CC[C@H]3N)[C@@H](N)C[C@H]2NC(=O)[C@H](O)CN)OC[C@]1(C)O` [Example 7, 6′-Methyl-cyclopropyl-1-(3-amino-2(R)-hydroxy-propionyl)-sisomicin] the same measures were less than 1 µg/mL and 1 to 16 µg/mL (≈ 1.7 to 27.2 µM).
`CN[C@@H]1[C@@H](O)[C@@H](O[C@@H]2[C@@H](O)[C@H](O[C@H]3OC(CNCC4CCNCC4)=CC[C@H]3N)[C@@H](N)C[C@H]2NC(=O)[C@H](O)CN)OC[C@]1(C)O` [Example 8, 6′-Methyl-piperidinyl-1-(3-amino-2(R)-hydroxy-propionyl)-sisomicin]: the MIC was less than 1 µg/mL in assay [1] (setting [3]) and 1 to 16 µg/mL (≈ 1.58 to 25.3 µM) in assay [2] (setting [4]).
Taken in the same sequence, the figures for `CN[C@@H]1[C@@H](O)[C@@H](O[C@@H]2[C@@H](O)[C@H](O[C@H]3OC(CNCCO)=CC[C@H]3N)[C@@H](N)C[C@H]2NC(=O)[C@H](O)CN)OC[C@]1(C)O` [Example 9, 6′-(2-Hydroxy-ethyl)-1-(3-amino-2(R)-hydroxy-propionyl)-sisomicin] were 1 to 16 µg/mL (≈ 1.73 to 27.6 µM) and more than 16 µg/mL.
For `CN[C@@H]1[C@@H](O)[C@@H](O[C@@H]2[C@@H](O)[C@H](O[C@H]3OC(CNCC(O)CO)=CC[C@H]3N)[C@@H](N)C[C@H]2NC(=O)[C@H](O)CN)OC[C@]1(C)O` (stereo partly drawn) [Example 10, 6′-(2-Hydroxy-propanol)-1-(3-amino-2(R)-hydroxy-propionyl)-sisomicin] the same measures were 1 to 16 µg/mL (≈ 1.64 to 26.3 µM) and 1 to 16 µg/mL (≈ 1.64 to 26.3 µM).
Taken in the same sequence, the figures for `CN[C@@H]1[C@@H](O)[C@@H](O[C@@H]2[C@@H](O)[C@H](O[C@H]3OC(CNCCCN)=CC[C@H]3N)[C@@H](N)C[C@H]2NC(=O)[C@H](O)CN)OC[C@]1(C)O` [Example 11, 6′-(3-Amino-propyl)-1-(3-amino-2(R)-hydroxy-propionyl)-sisomicin] were less than 1 µg/mL and 1 to 16 µg/mL (≈ 1.69 to 27 µM).
In the case of `CN[C@@H]1[C@@H](O)[C@@H](O[C@@H]2[C@@H](O)[C@H](O[C@H]3OC(CNCC4CCNCC4)=CC[C@H]3N)[C@@H](N)C[C@H]2NC(=O)[C@@H](O)CCN)OC[C@]1(C)O` [Example 12, 6′-(Methyl-piperidin-4-yl)-1-(4-amino-2(S)-hydroxy-butyryl)-sisomicin], the MIC in assay [1] (setting [5]) and in assay [2] (setting [6]) was 1 to 16 µg/mL (≈ 1.55 to 24.8 µM) in each case. The “MIC AECO001” value in assay [1] worked out at 1.
On to `CN[C@@H]1[C@@H](O)[C@@H](O[C@@H]2[C@@H](O)[C@H](O[C@H]3OC(CNCC4CC4)=CC[C@H]3N)[C@@H](N)C[C@H]2NC(=O)[C@@H](O)CN)OC[C@]1(C)O` [Example 13, 6′-(Methyl-cyclopropyl)-1-(3-amino-2(S)-hydroxy-propionyl)-sisomicin], for which the MIC in assay [1] (setting [5]) is 1 to 16 µg/mL (≈ 1.7 to 27.2 µM); in assay [2] (setting [6]), more than 16 µg/mL. For the same molecule, the “MIC AECO001” value in assay [1] amounted to 1.
As to `CN[C@@H]1[C@@H](O)[C@@H](O[C@@H]2[C@@H](O)[C@H](O[C@H]3OC(CNCC(O)CO)=CC[C@H]3N)[C@@H](N)C[C@H]2NC(=O)[C@@H](O)CN)OC[C@]1(C)O` (stereo partly drawn) [Example 14, 6′-(2-Hydroxy-propanol)-1-(3-amino-2(S)-hydroxy-propionyl)-sisomicin], the MIC in assay [1] (setting [3]) and in assay [2] (setting [4]) was 1 to 16 µg/mL (≈ 1.64 to 26.3 µM) throughout.
In the case of `CN[C@@H]1[C@@H](O)[C@@H](O[C@@H]2[C@@H](O)[C@H](O[C@H]3OC(CNCC4CC4)=CC[C@H]3N)[C@@H](N)C[C@H]2NC(=O)[C@@H](O)CCN)OC[C@]1(C)O` [Example 18, 6′-(Methyl-cyclopropyl)-1-(4-amino-2(S)-hydroxy-butyryl)-sisomicin], the MIC is less than 1 µg/mL in assay [1] (setting [5]) and 1 to 16 µg/mL (≈ 1.66 to 26.5 µM) in assay [2] (setting [6]). The “MIC AECO001” value in assay [1] is 1.
`CN[C@@H]1[C@@H](O)[C@@H](O[C@@H]2[C@@H](O)[C@H](O[C@H]3OC(CNCC(O)CO)=CC[C@H]3N)[C@@H](N)C[C@H]2NC(=O)[C@@H](O)CCN)OC[C@]1(C)O` (stereo partly drawn) [Example 19, 6′-(2-Hydroxy-propanol)-1-(4-amino-2(S)-hydroxy-butyryl)-sisomicin]: the MIC in assay [1] (setting [3]) was less than 1 µg/mL; in assay [2] (setting [4]) it was 1 to 16 µg/mL (≈ 1.61 to 25.7 µM).
Taken in the same sequence, the figures for `CN[C@@H]1[C@@H](O)[C@@H](O[C@@H]2[C@@H](O)[C@H](O[C@H]3OC(CNC(=O)C(O)CN)=CC[C@H]3N)[C@@H](N)C[C@H]2NC(=O)[C@@H](O)CN)OC[C@]1(C)O` (stereo partly drawn) [Example 20, 6′-(3-Amino-2-hydroxy-propionyl)-1-(3-amino-2(S)-hydroxy-propionyl)-sisomicin] were more than 16 µg/mL and more than 16 µg/mL.
For `CN[C@@H]1[C@@H](O)[C@@H](O[C@@H]2[C@@H](O)[C@H](O[C@H]3OC(CNCC(O)C(N)=O)=CC[C@H]3N)[C@@H](N)C[C@H]2NC(=O)[C@@H](O)CN)OC[C@]1(C)O` (stereo partly drawn) [Example 21, 6′-(2-Hydroxy-3-propionamide)-1-(3-amino-2(S)-hydroxy-propionyl)-sisomicin] the same measures were 1 to 16 µg/mL (≈ 1.61 to 25.7 µM) and 1 to 16 µg/mL (≈ 1.61 to 25.7 µM).
With `CN[C@@H]1[C@@H](O)[C@@H](O[C@@H]2[C@@H](O)[C@H](O[C@H]3OC(CNCC(O)CO)=CC[C@H]3N)[C@@H](N)C[C@H]2NC(=O)CO)OC[C@]1(C)O` (stereo partly drawn) [Example 23, 6′-(2-Hydroxy-propanol)-1-(2-hydroxy-acetyl)-sisomicin], the MIC in assay [1] (setting [3]) and in assay [2] (setting [4]) was more than 16 µg/mL in each case.
On to `CN[C@@H]1[C@@H](O)[C@@H](O[C@@H]2[C@@H](O)[C@H](O[C@H]3OC(CNCCCN)=CC[C@H]3N)[C@@H](N)C[C@H]2NC(=O)CO)OC[C@]1(C)O` [Example 24, 6′-(3-Amino-propyl)-1-(2-hydroxy-acetyl)-sisomicin], for which the minimum inhibitory concentration (MIC) in assay [1] (setting [3]) and in assay [2] (setting [4]) was 1 to 16 µg/mL (≈ 1.78 to 28.4 µM) throughout.
For `CN[C@@H]1[C@@H](O)[C@@H](O[C@@H]2[C@@H](O)[C@H](O[C@H]3OC(CNCCO)=CC[C@H]3N)[C@@H](N)C[C@H]2NC(=O)CO)OC[C@]1(C)O` [Example 25, 6′-(2-Hydroxy-ethyl)-1-(2-hydroxy-acetyl)-sisomicin], the minimum inhibitory concentration (MIC) in assay [1] (setting [3]) and in assay [2] (setting [4]) was 1 to 16 µg/mL (≈ 1.82 to 29.1 µM) each time.
With `CN[C@@H]1[C@@H](O)[C@@H](O[C@@H]2[C@@H](O)[C@H](O[C@H]3OC(CNCCCN)=CC[C@H]3N)[C@@H](N)C[C@H]2NS(=O)(=O)CCN)OC[C@]1(C)O` [Example 26, 6′-(3-Amino-propyl)-1-(2-amino-ethylsulfonamide)-sisomicin], the MIC in assay [1] (setting [3]) and in assay [2] (setting [4]) was 1 to 16 µg/mL (≈ 1.63 to 26.2 µM) each time.
As for `CN[C@@H]1[C@@H](O)[C@@H](O[C@@H]2[C@@H](O)[C@H](O[C@H]3OC(CNCC(O)CO)=CC[C@H]3N)[C@@H](N)C[C@H]2NS(=O)(=O)CCN)OC[C@]1(C)O` (stereo partly drawn) [Example 27, 6′-(2-Hydroxy-propanol)-1-(2-amino-ethylsulfonamide)-sisomicin], the MIC is 1 to 16 µg/mL (≈ 1.59 to 25.4 µM) in assay [1] (setting [3]) and more than 16 µg/mL in assay [2] (setting [4]).
For `CN[C@@H]1[C@@H](O)[C@@H](O[C@@H]2[C@@H](O)[C@H](O[C@H]3OC(CNC[C@H](O)CO)=CC[C@H]3N)[C@@H](N)C[C@H]2NC(=O)[C@@H](O)CCN)OC[C@]1(C)O` [Example 28, 6′-(2(S)-Hydroxy-propanol)-1-(4-amino-2(S)-hydroxy-butyryl)-sisomicin] the same measures were 1 to 16 µg/mL (≈ 1.61 to 25.7 µM) and 1 to 16 µg/mL (≈ 1.61 to 25.7 µM).
For `CN[C@@H]1[C@@H](O)[C@@H](O[C@@H]2[C@@H](O)[C@H](O[C@H]3OC(CNCCO)=CC[C@H]3N)[C@@H](N)C[C@H]2NS(=O)(=O)CCN)OC[C@]1(C)O` [Example 29, 6′-(2-Hydroxy-ethyl)-1-(2-amino-ethylsulfonamide)-sisomicin] the same measures were 1 to 16 µg/mL (≈ 1.67 to 26.7 µM) and more than 16 µg/mL.

For orientation: MIC means the lowest concentration that inhibits growth of the organism.
